Legend:
[1] = target: U937 Phosphodiesterase IV (PDE IV); assay: Inhibition of U937 Phosphodiesterase IV (PDE IV); assay type: biochemical; conditions: PDE IV enzyme preparation from U937 cell homogenate; [3H]-cAMP substrate; CI-930 (PDE III inhibitor) final 10 μM; 30° C.
Experimental: (a) Inhibition of U937 Phosphodiesterase IV (PDE IV)
Harvested U937 was freezed in −80° C. and throwed to destroy the cell body. The pellet of destroyed cell was washed by Phosphate-buffered saline (PBS).
The washed cell pellet was homogenized with Dounce homogenizer (20 strokes) in homogenizing buffer (0.5% deoxycholate [DOC], 5 mM 2-mercaptoethanol, 1 μM leupeptin, 100 μM PMSF, 20 μM p-tosyl-L-lysine-chloromethyl ketone [TLCK] in PBS). The homogenate was centrifuged at 100,000 g×90 minutes (4° C.) and the supernatant containing PDE IV activity was dialyzed against dialysis buffer, which was the same component as homogenizing buffer without DOC. The dialyzed supernatant of homogenate was stored in freezer (−80° C.) as PDE IV enzyme preparation.
Enzyme preparation was diluted in assay buffer (10 mM Tris-HCl, 5 mM MgCl, 1 mM 2-Mercaptoethanol [pH 8.0]). In advance the rate of dilution was choosen every new lot of homogenizing preparation. […]
The reaction tube was preincubated in a water bath (30° C.) for 5 minutes, then 100 μl [^3H]-cAMP (37.0 MBq/ml [^3H]-cAMP: 4 μM cold cAMP=1:800) was added thereto. […] The mixture was centrifuged at 1000 rpm×5 minutes, and then 500 μl of the supernatant was added to 10 ml scintillation fluid in appropriate vial, vortexed, and counted for [^3H].
The inhibitory activity was calculated according to the following equation: [formula]

[2] = tested on: TNF-α Production in Human Mononuclear Cells; assay: Inhibition on TNF-α Production in Human Mononuclear Cells; assay type: cell-based; conditions: MNC from healthy volunteers, 1 μg/ml LPS (E. coli), 37° C. for 16 hours, TNF-α in supernatant by ELISA
Experimental: (b) Inhibition on TNF-α Production in Human Mononuclear Cells
Blood was drawn from healthy volunteers with heparin. The mononuclear cell (MNC) fraction was obtained by gradient centrifugation (1800 rpm, 15 minutes), diluted with the same volume of RPMI-1640 culture medium, over Ficoll-Paque (Pharmacia LKB Biotechnology). MNC were washed twice with RPMI-1640. Then, MNC were resuspended in RPMI-1640 culture medium supplemented with 2 mM L-glutamine and 1% fetal bovine serum. MNC were incubated at 37° C. for 16 hours in 96-well micro culture plate at a concentration of […] with or without 1 μg/ml lipopolysaccharide (LPS) (from E. coli) and various amounts of test compound. At the end of incubation, the supernatant was obtained and its TNF-α active was measured by enzyme-linked immunosorbent assay (ELISA). ELISA was performed with TNF-α ELISA kit (Otsuka Pharmaceutical Co., Ltd.).

IC50 [1]: 31 nM
SMILES: O=C(Nc1cccc(-n2c(=O)c(Cc3ccccc3)nc3cccnc32)c1)Nc1cccc2ccccc12 [Test compound (a), 4-[3-[3-(1-Naphthyl)ureido]phenyl]-2-benzyl-3-oxo-3,4-dihydropyrido[2,3-b]pyrazine]
IC50 [2]: 56 nM

From patent US6727245B2, “Heterobicyclic derivatives” (Fujisawa Pharmaceutical Co., Ltd., priority 1994, dated 2004)
